# Experiments:
# [1] = biological target: T1, PPARγ (Homo sapiens, UniProt P37231); experiment: intact-protein LC-ESI-MS, covalent control (data not shown); type: binding
# T1 construct: gene PPARG
# T1 sequence (P37231 235-505 limits assumed): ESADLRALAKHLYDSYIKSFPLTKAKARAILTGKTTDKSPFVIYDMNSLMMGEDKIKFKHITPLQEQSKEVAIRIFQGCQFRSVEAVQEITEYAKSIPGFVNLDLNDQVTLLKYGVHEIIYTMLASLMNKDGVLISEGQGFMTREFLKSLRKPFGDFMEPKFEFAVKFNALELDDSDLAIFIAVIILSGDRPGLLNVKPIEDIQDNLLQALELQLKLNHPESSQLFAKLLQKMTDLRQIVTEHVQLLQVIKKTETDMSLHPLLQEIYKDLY
# [2] = biological target: T1, PPARγ; experiment: competitive fluorescence polarization (PolarScreen PPARγ green kit); LC-MS shows no covalent adduct; type: binding
IC50 [2] [µM],SMILES,"intact-protein LC-ESI-MS, covalent control (data not shown) [1]"
,O=C(Nc1ccccc1)c1cc([N+](=O)[O-])ccc1Cl [GW9662],"Dithio-bis (2-nitrobenzoic acid) and GW9662, were also confirmed bind to PPARγ irreversibly (data not shown)"
2.84,CCCCCCCCCCC[C@@H](C[C@@H]1OC(=O)[C@H]1CCCCCC)OC(=O)[C@H](CC(C)C)NC=O [Orlistat],

# — paper PMC3681555, “PPARγ as a sensor of lipase activity and a target for the lipase inhibitor orlistat” (Lipids in Health and Disease, 2013)
